# Reference: article PMC7719179, “Small molecule inhibition of Dynamin-dependent endocytosis targets multiple niche signals and impairs leukemia stem cells” (Nature Communications, 2020)
# Values joined by “and” are separate entries in the source; they are usually repeats but may differ in a detail not shown here. Equal entries are not always repeated.
# Assays:
# [1] = system: IL-3R, GM-CSFR and c-Kit endocytosis in Ba/F3-SGM3R cells; experiment: Surface expression of IL-3R, GM-CSFR and KIT in Ba/F3-SGM3R cells; type: cell-based, murine; settings: result in words
# Source text: The coding sequence of murine Csf2ra (gm-csfr) and c-Kit was amplified by PCR from cDNA of bone marrow mononuclear cells of a healthy WT donor using primers mGmcsfr-FL-F and mGmcsfr-FL-R, and mKit-FL-F and mKit-FL-R, respectively (Table 3). The PCR product was cloned into the XhoI and EcoRI sites of pMIG-R1, which was kindly given by Pear et al.[82],[83]. Ba/F3 cells were infected with pMIG-R1/Gmcsfr retroviral supernatants produced in 293T cells, transduced cells were sorted with a BD Influx (BD Australia) and selected by culture in medium supplemented with 25 ng/mL rmGm-csf (#305-03, Pepro Tech, Rocky Hill NJ, USA) for 7 days. Finally, Ba/F3 cells stably expressing Gm-csfr were infected with pMIG-R1/Kit retroviral supernatants produced in 293T cells to generate Ba/F3-SMG3R cells, which were sorted with a BD Influx and maintained in medium supplemented with 5 ng/mL rmIL-3 (#213-13, Pepro Tech, Rocky Hill NJ, USA).
# Mean fluorescence intensity (MFI) ± SD of n=3 biological replicates are shown (*P<0.05, ** P<0.01, ***P<0.001 compared to vehicle) . Basal levels of pStat5 and pErk were measured in unstimulated BaF3-SGM3 R cells (white bar). c, Correlative studies between the relative levels of pStat5 (left) or pErk (right) and the relative survival of BaF3-SGM3R cells treated Dynole 34-2 . […]
# in BaF3-SGM3R cells treated with Dynole 34-2 . […] Baseline measured in unstimulated BaF3-SGM3 R cells
# hematopoietic stem cells = experiment: Competitive transplant with bone marrow cells from treated WT mice (HSC activity); type: in vivo
# Method: induction-like therapy (VXL) or combination therapy was administered. Mean ± SEM, 2-way ANOVA […]
# murine B (CD19+ B220+), T (CD3+) and Myeloid (Gr-1 + CD11b+ granulocytes and monocytes) cells (c ), as well as Lineage-negative Kit-positive (Lin -Kit+, LK) progenitors, different populations of multipotent progenitors (MPP) and hematopoietic stem cells (HSC; d) from the bone marrow of WT […]
# administered. Vehicle was used as control. e, Experimental schematic of competitive transplant […]
# harvested from isogenic Cd45.1+ mice. These cells were injected into lethally -irradiated recipients, and lineage reconstitution was monitored every 4 weeks, until 20 weeks post-transplantation when BM was harvested for analysis. f, Percent of donor -derived (Cd45.2 +) cells among all peripheral blood cells at 4, 8, 12, 16 and 20 weeks post- transplant. g-h , Absolute numbers of donor-derived (Cd45.2+) lineage-committed (B, and Myeloid) cells ( g), as well as LK, MPP populations and HSCs (h ) harvested from the BM of recipients at 20 weeks post- transplant. Mean ± SEM, 2-way ANOV A with Tukey’s correction test; *P<0.05, *** P<0.001 compared to vehicle; #P<0.05, ##P<0.01, ###P<0.001 compared to VXL. ns = not statistically significant.
smiles,measurement,setting,value
"CCCCCCCCNC(=O)C(C#N)=Cc1cn(CCCN(C)C)c2ccccc12 [Dynole 34-2, 2-Cyano-N-octyl-3-(1-(3-dimethylaminopropyl)-1H-indol-3-yl)-acrylamide]","endocytosis of c-Kit, GM-CSFR and IL-3R",[1],impaired endocytosis
same,Absolute numbers of Cd45.2+ cells in the bone marrow: B cells,hematopoietic stem cells; Supplementary Figure 5g-h,3150000 and 4270000 and 3310000 and 4360000
same,Absolute numbers of Cd45.2+ cells in the bone marrow: LK,hematopoietic stem cells; Supplementary Figure 5g-h,231000 and 185000 and 205000 and 163000 and 160000
same,Absolute numbers of Cd45.2+ cells in the bone marrow: Myeloid cells,hematopoietic stem cells; Supplementary Figure 5g-h,955000 and 1600000 and 1200000 and 1410000 and 1720000
same,Absolute numbers of Cd45.2+ cells in the bone marrow: T cells,hematopoietic stem cells; Supplementary Figure 5g-h,471000 and 332000 and 364000 and 374000 and 460000
same,effect on HSC fitness and differentiation potential,"hematopoietic stem cells; competitive transplant of bone marrow from treated mice, result in words",no detrimental effect on HSC fitness and differentiation potential
same,Proportion of CD45.2+ (%) in peripheral blood,hematopoietic stem cells; week 4,40.53% and 37.56% and 37.9% and 34.3% and 35.3%
same,Proportion of CD45.2+ (%) in peripheral blood,hematopoietic stem cells; week 8,36.97% and 46.65% and 45.78% and 44.9% and 43.63%
same,Proportion of CD45.2+ (%) in peripheral blood,hematopoietic stem cells; week 12,46.54% and 48.81% and 42.82% and 42.23% and 46.32%
same,Proportion of CD45.2+ (%) in peripheral blood,hematopoietic stem cells; week 16,42.09% and 57% and 54.04% and 43.93% and 53.26%
same,Proportion of CD45.2+ (%) in peripheral blood,hematopoietic stem cells; week 20,50.7% and 47.2% and 59.8% and 59.3% and 53.24%
